This is an account of results in patent US6743800B1, “Naphthyridine derivatives, processes for their preparation, their use and pharmaceutical compositions comprising them” (Aventis Pharma Deutschland GmbH, priority 1999, dated 2004).

The target in assay [1] is T1, human vitronectin receptor αvβ3 (Homo sapiens, UniProt P05106+P06756).
T1 construct: Human vitronectin receptor is obtained from the human placenta according to the method of Pytela et al; from tissue; host or cells: human placenta (alternative: 293 cells co-transfected with αv and β3 DNA)
T1 sequence (P06756 31-889 limits assumed): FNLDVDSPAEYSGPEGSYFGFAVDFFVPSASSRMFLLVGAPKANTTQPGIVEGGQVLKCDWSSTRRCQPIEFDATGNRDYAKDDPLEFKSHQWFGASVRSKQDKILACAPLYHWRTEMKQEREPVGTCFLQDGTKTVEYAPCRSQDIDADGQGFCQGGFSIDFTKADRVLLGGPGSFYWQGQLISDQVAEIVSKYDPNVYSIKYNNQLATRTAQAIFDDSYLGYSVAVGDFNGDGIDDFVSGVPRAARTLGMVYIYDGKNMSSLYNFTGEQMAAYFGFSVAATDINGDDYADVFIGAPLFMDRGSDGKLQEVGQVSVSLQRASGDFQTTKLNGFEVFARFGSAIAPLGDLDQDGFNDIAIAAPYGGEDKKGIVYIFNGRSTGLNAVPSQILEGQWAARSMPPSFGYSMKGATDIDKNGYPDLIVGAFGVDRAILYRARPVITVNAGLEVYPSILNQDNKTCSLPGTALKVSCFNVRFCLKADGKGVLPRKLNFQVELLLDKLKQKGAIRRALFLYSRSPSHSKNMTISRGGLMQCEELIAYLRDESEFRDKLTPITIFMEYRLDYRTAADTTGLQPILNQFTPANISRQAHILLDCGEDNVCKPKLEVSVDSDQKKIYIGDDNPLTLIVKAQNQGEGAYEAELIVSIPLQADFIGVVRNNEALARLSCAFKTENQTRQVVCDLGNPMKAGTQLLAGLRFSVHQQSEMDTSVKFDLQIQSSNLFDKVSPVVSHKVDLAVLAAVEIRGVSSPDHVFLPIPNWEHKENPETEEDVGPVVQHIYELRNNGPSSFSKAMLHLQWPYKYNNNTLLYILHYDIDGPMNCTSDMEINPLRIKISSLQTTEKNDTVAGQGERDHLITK
T1 sequence (P06756 891-1048 partner limits assumed): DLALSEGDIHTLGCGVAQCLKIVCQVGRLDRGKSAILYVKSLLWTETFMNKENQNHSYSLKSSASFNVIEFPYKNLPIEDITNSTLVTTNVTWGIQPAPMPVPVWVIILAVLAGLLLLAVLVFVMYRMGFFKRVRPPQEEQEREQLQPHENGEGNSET
T1 sequence (P05106 27-788): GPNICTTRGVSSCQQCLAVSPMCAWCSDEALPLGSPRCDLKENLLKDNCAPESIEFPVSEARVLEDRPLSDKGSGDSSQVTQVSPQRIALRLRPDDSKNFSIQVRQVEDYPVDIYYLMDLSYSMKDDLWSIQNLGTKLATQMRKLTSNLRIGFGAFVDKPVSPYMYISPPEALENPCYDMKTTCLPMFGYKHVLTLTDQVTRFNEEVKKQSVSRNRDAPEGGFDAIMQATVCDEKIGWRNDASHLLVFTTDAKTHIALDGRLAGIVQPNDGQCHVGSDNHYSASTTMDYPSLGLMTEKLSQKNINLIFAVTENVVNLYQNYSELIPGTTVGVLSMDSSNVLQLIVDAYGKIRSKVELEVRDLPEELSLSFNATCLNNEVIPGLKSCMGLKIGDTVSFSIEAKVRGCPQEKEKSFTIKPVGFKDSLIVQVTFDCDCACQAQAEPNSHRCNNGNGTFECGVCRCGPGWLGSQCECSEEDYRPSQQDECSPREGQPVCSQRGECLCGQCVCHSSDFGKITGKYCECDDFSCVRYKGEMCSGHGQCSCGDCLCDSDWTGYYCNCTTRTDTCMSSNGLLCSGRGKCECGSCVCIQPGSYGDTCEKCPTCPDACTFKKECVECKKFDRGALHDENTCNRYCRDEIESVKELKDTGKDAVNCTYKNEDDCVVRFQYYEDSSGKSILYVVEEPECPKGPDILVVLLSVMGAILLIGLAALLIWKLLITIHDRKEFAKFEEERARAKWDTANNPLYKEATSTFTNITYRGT
In words: Kistrin binding assay (αvβ3 ELISA test, K/VnR). The following applies: inhibition of binding of kistrin to human vitronectin receptor αvβ3, ELISA. The text has this:
The inhibition of the binding of kistrin to human vitronectin receptor (VnR) described below is a test method by which the antagonistic action of the compounds of the invention on the vitronectin receptor αvβ3 can be determined (αvβ3 ELISA Test; the test method is abbreviated as “K/VnR” in the listing of the test results).
Kistrin is purified according to the methods of Dennis et al., as described in Proc. Natl. Acad. Sci. USA 87 (1989) 2471 and Proteins: Structure, Function and Genetics 15 (1993) 312.
Purification of Human Vitronectin Receptor (αvβ3)
Human vitronectin receptor is obtained from the human placenta according to the method of Pytela et al., Methods Enzymol. 144 (1987) 475. Human vitronectin receptor αvβ3 can also be obtained from some cell lines (for example from 293 cells, a human embryonic kidney cell line) which are co-transfected with DNA sequences for both subunits αv and β3 of the vitronectin receptor. The subunits are extracted with octyl glycoside and then chromatographed through concanavalin A, heparin-Sepharose and S-300.
Murine monoclonal antibodies which are specific for the β3 subunits of the vitronectin receptor, are prepared according to the method of Newman et al., Blood, 1985, 227, or by a similar process. The rabbit Fab 2 anti-mouse Fc conjugate to horseradish peroxidase (anti-mouse Fc HRP) was obtained from Pel Freeze (Catalog No. 715 305-1).
The ability of substances to inhibit the binding of kistrin to the vitronectin receptor can be determined using an ELISA test. For this purpose, Nunc 96-well microtiter plates are coated with a solution of kistrin (0.002 mg/ml) according to the method of Dennis et al., as described in Proteins: Structure, Function and Genetics 15 (1993) 312. The plates are then washed twice with PBS/0.05% Tween-20 and blocked by incubating (60 min) with bovine serum albumin (BSA, 0.5%, RIA grade or better) in buffer solution (Tris-HCl (50 mM), NaCl (100 mM), MgCl2 (1 mM), CaCl2 (1 mM), MnCl2 (1 mM), pH 7). Solutions of known inhibitors and of the test substances are prepared in concentrations from 2×10^−12 to 2×10^−6 mol/l in assay buffer (BSA (0.5%, RIA grade or better); Tris-HCl (50 mM); NaCl (100 mM), MgCl2 (1 mM), CaCl2 (1 mM), MnCl2 (1 mM), pH 7). The blocked plates are emptied, and in each case 0.025 ml of this solution which contains a defined concentration (2×10^−12 to 2×10^−6 mol/l) either of a known inhibitor or of a test substance, are added to each well. 0.025 ml of a solution of the vitronectin receptor in assay buffer (0.03 mg/ml) is pipetted into each well of the plate and the plate is incubated at room temperature for 60-180 min on a shaker. In the meantime, a solution (6 ml/plate) of a murine monoclonal antibody specific for the β3 subunit of the vitronectin receptor is prepared in assay buffer (0.0015 mg/ml). A second rabbit antibody (0.001 ml of stock solution/6 ml of the murine monoclonal anti-β3 antibody solution) which is an anti-mouse Fc HRP antibody conjugate is added to this solution, and this mixture of murine anti-β3 antibody and rabbit anti-mouse Fc HRP antibody conjugate is incubated during the time of the receptor-inhibitor incubation. The test plates are washed four times with PBS solution which contains 0.05% Tween-20, and in each case 0.05 ml/well of the antibody mixture is pipetted into each well of the plate and incubated for 60-180 min. The plate is washed four times with PBS/0.05% Tween-20 and then developed with 0.05 ml/well of a PBS solution which contains 0.67 mg/ml of o-phenylenediamine and 0.012% of H2O2 . Alternatively to this, o-phenylenediamine can be employed in a buffer (pH 5) which contains Na3PO4 and citric acid. The color development is stopped using 1 N H2SO4 (0.05 ml/well). The absorption for each well is measured at 492-405 nm and the data are evaluated by standard methods.
On the technique in general: An ELISA detects its analyte on a solid surface through an enzyme-linked reagent.

The target of assay [2] is 293 cells cotransfected with αv and β3 subunits of the vitronectin receptor αvβ3 (Homo sapiens, UniProt P05106+P06756). In words: Vitronectin/293 cell test (inhibition of binding of 293 cells to human vitronectin). Format: cell-based. The following applies: inhibition of binding of αvβ3-expressing 293 cells to human vitronectin; read-out: Vn/293 cell test IC50. How it is done: 2) Vitronectin/293 Cell Test
Chain of 293 cells cotransfected with αv and β3 subunits of the vitronectin receptor αvβ3 (P05106 whole entry): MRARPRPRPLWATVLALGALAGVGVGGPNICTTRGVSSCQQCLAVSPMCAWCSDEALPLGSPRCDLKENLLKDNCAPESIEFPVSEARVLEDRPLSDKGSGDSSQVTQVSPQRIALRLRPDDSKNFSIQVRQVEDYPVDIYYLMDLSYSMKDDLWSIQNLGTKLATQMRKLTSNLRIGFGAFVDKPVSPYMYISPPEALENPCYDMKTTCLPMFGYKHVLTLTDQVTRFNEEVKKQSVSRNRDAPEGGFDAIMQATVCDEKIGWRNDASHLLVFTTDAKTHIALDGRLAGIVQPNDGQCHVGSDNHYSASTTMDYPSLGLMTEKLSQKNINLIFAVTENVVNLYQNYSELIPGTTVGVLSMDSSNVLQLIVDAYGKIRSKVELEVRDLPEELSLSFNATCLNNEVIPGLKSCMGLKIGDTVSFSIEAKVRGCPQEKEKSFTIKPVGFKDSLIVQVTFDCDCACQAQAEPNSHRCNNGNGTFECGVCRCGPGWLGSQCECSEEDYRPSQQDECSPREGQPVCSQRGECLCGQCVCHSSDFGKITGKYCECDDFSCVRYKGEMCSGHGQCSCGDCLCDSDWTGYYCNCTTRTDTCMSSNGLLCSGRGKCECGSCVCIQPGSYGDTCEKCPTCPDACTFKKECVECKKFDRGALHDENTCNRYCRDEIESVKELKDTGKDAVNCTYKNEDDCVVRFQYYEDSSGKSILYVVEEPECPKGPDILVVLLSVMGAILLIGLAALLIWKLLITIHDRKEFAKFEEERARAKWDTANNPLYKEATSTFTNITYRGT
Chain of 293 cells cotransfected with αv and β3 subunits of the vitronectin receptor αvβ3 (P06756 whole entry): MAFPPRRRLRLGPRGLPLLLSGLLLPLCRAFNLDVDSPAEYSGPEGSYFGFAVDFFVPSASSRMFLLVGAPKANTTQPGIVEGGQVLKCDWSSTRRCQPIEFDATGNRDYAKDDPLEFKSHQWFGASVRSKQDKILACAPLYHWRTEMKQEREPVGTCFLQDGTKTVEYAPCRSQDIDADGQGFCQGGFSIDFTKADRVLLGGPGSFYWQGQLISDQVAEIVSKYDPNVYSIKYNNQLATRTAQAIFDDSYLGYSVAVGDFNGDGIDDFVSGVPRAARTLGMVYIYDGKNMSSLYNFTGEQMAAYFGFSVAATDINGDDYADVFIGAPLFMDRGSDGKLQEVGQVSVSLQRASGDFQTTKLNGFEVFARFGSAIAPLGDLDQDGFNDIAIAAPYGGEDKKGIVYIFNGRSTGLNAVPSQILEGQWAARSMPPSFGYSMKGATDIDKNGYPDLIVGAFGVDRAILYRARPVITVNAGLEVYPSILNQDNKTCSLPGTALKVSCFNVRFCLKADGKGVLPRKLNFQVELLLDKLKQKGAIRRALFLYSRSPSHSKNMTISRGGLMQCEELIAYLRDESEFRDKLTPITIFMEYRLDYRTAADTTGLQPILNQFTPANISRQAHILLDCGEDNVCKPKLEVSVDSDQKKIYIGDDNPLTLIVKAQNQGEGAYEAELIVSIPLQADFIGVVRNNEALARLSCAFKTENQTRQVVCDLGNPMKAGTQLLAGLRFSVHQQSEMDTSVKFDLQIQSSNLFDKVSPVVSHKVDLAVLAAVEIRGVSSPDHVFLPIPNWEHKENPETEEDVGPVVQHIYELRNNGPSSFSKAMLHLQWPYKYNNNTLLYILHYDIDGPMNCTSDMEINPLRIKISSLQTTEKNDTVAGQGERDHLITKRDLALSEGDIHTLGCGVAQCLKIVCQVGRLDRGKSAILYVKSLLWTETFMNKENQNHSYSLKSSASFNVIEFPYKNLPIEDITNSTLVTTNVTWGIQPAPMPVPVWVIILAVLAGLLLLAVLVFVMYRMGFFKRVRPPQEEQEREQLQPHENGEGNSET
In this test the inhibition of binding of 293 cells to human vitronectin (Vn) by the compounds of the invention is determined (the test method is abbreviated as Vn/293 cell test in the listing of the test results).
Purification of Human Vitronectin
Human vitronectin was isolated from human plasma and purified by affinity chromatography according to the method of Yatohgo et al., Cell Structure and Function 23 (1988) 281.
293 cells, a human embryonic kidney cell line, which were cotransfected with DNA sequences for the αv and β3 subunits of the vitronectin receptor αvβ3, were selected for a high rate of expression (>500,000 αvβ3 receptors/cell) according to the FACS method. The selected cells were cultured and sorted again by means of FACS in order to obtain a stable cell line (15 D) with expression rates >1,000,000 copies of αvβ3 per cell.
A Linbro 96-well tissue culture plate with a flat bottom was coated overnight at 4° C. with human vitronectin (0.01 mg/ml, 0.05 ml/well) in phosphate-buffered saline solution (PBS) and then blocked with 0.5% strength BSA (bovine serum albumin). Solutions of the test substances from 10^−10 mol/l to 2×10^−3 mol/l in glucose-containing DMEM medium were prepared and 0.05 ml/well of the solution were added to the plate in each case. The cells which expressed high levels of αvβ3 (for example 15 D) were suspended in glucose-containing DMEM medium and the suspension was adjusted to a content of 25,000 cells/0.05 ml of medium. 0.05 ml of this cell suspension was added to each well and the plate was incubated at 37° C. for 90 min. The plate was washed 3 times with warm PBS in order to remove unbound cells. The bound cells were lyzed in citrate buffer (25 mM, pH 5.0) which contained 0.25% Triton X-100. The hexoseamidase substrate p-nitrophenyl-N-acetyl-β-D-glucosaminide was then added and the plate was incubated at 37° C. for 90 min. The reaction was stopped with a glycine (50 mM)/EDTA (5 mM) buffer (pH 10.4) and the absorption of each well was measured at 405 to 650 nm. The data were analyzed according to standard methods.

In assay [3] the test system is bone resorption by osteoclasts. In words: Pit Assay (osteoclast resorption test). Format: cell-based. The following applies: inhibition of bone resorption. The text has this:
The inhibition of bone resorption by the compounds of the invention can be determined, for example, with the aid of an osteoclast resorption test (“Pit Assay”), for example analogously to WO-A-95/32710 which is incorporated herein by reference.

Take `O=C(N[C@@H](Cn1cnc2c(N3CCC(c4ccc5c(n4)NCCC5)CC3)ncnc21)C(=O)O)OCc1ccccc1` [Example 1, (2S)-2-Benzyloxycarbonylamino-3-(6-(4-(5,6,7,8-tetrahydro-[1,8]naphthyridin-2-yl)-piperidin-1-yl)-purin-9-yl)-propionic acid]: the IC50 in assay [1] came out at 10 nM; in assay [2] it was 78 nM.

`O=C(O)[C@H](Cn1cnc2c(N3CCC(c4ccc5c(n4)NCCC5)CC3)ncnc21)NS(=O)(=O)c1ccccc1` [Example 2, (2S)-2-Benzenesulfonylamino-3-(6-(4-(5,6,7,8-tetrahydro-[1,8]naphthyridin-2-yl)-piperidin-1-yl)-purin-9-yl)-propionic acid]: the IC50 in assay [1] is 4.8 nM; in assay [2] it was 23 nM.

Turning to `O=C(O)[C@H](Cn1cnc2c(N3CCC(c4ccc5c(n4)NCCC5)CC3)ncnc21)NS(=O)(=O)c1ccc(Cl)cc1` [Example 3, (2S)-2-(4-Chlorobenzenesulfonylamino)-3-(6-(4-(5,6,7,8-tetrahydro-[1,8]naphthyridin-2-yl)-piperidin-1-yl)-purin-9-yl)-propionic acid], the IC50 worked out at 5.1 nM in assay [1], 15 nM in assay [2] and 0.3 nM in assay [3].

Regarding `O=C(O)[C@H](Cn1cnc2c(N3CCC(c4ccc5c(n4)NCCC5)CC3)ncnc21)NS(=O)(=O)c1cccc2ccccc12` [Example 4, (2S)-2-(Naphthalene-1-sulfonylamino)-3-(6-(4-(5,6,7,8-tetrahydro-[1,8]naphthyridin-2-yl)-piperidin-1-yl)-purin-9-yl)-propionic acid], the IC50 was 6.4 nM in assay [1], 24 nM in assay [2] and < 10 nM in assay [3].

In the case of `O=C(O)[C@H](Cn1cnc2c(N3CCC(c4ccc5c(n4)NCCC5)CC3)ncnc21)NS(=O)(=O)c1ccc(C(F)(F)F)cc1` [Example 5, (2S)-3-(6-(4-(5,6,7,8-Tetrahydro-[1,8]naphthyridin-2-yl)-piperidin-1-yl)-purin-9-yl)-2-(4-trifluoromethylbenzenesulfonylamino)-propionic acid], the IC50 was 5 nM in assay [1] and 22 nM in assay [2].

As to `CCCCS(=O)(=O)N[C@@H](Cn1cnc2c(N3CCC(c4ccc5c(n4)NCCC5)CC3)ncnc21)C(=O)O` [Example 6, (2S)-2-(Butane-1-sulfonylamino)-3-(6-(4-(5,6,7,8-tetrahydro-[1,8]naphthyridin-2-yl)-piperidin-1-yl)-purin-9-yl)-propionic acid], the IC50 in assay [1] turned out to be 18 nM; in assay [2], 115 nM.
